Source: patent US20250332167A1, “PHARMACEUTICAL USE OF CDK 4/6 INHIBITOR” (priority 2021, published 2025)
Several values for one entry are separate records, joined by “and”; a condition that tells them apart may be missing. Equal values may be shown once.

Legend:
[1] = test system: NCI-H1975 xenograft; assay: Human non-small cell lung cancer NCI-H1975 xenograft mouse model; format: in vivo, Balb/c nude mice; details: 25 mg/kg oral gavage once daily
Description: (§1) The formula for calculating tumor volume was: Tumor Volume (mm^3)=½×(a×b^2) (where “a” represents the long diameter and “b” represents the short diameter).
(§2) The relative tumor growth rate (T/C) is the percentage value of the relative tumor volume or weight between the treatment group and the control group at a certain time point. The calculation formula is as follows: • T/C(%)=TRTV/CRTV×100% (TRTV: Average RTV of the treatment group; CRTV: Average RTV of the Vehicle group; RTV=Vt/V0, where V0 is the tumor volume of the animal at the time of grouping and Vt is the tumor volume of the animal after treatment).
(§3) (T and C are the relative tumor volume (RTV) or weight (TW) of the treatment group and control group at a specific time point, respectively).
NCI-H1975 cells were cultured in RPMI1640 medium containing 10% fetal bovine serum. Log-phase NCI-H1975 cells were collected, suspended in PBS to an appropriate concentration, and used for subcutaneous tumor implantation in Balb/c nude mice. Each female mouse was implanted with 0.1 ml of NCI-H1975 cells subcutaneously. When the average tumor volume reached 171 mm^3, the mice were randomly divided into groups based on tumor size.
The positive control drugs were Palbociclib and Abemaciclib.
Each group consisted of 8 mice, and oral gavage administration was performed once daily for a total of 21 days. Tumor volume and body weight changes were observed regularly, and efficacy evaluation was conducted based on relative tumor proliferation rate (T/C) and relative tumor growth inhibition rate (TGI). The calculation methods for tumor volume, T/C, and TGI are described in Example 3.

[2] = test system: Human glioblastoma model (BN2289); assay: Human glioblastoma xenograft mouse model (BN2289); format: in vivo, BALB/C nude mice; details: 25 mg/kg oral gavage once daily, day 21
Description: Human glioblastoma model (BN2289, Crown Bioscience Co., Ltd.) tumor fragments were cut into small pieces with a diameter of 2-3 mm and subcutaneously inoculated into the right side of BALB/C nude mice. Tumor growth was monitored regularly, and when the tumors grew to an average volume of approximately 100-200 mm^3, mice were randomly divided into groups based on the tumor size.
Each group consisted of 8 mice and received oral gavage administration once daily for a total of 28 days. Regular observations were made on tumor volume and changes in body weight. Efficacy evaluation was conducted based on the relative tumor growth rate (T/C) and the relative tumor inhibition rate (TGI).
as §1, §2, §3

[3] = test system: NCI-H1792; assay: Proliferation inhibition, non-small cell lung cancer cell line NCI-H1792; format: cell-based; details: Homo sapiens, NCI-H1792, 72 h
Description: (§4) Sixteen non-small cell lung cancer cell lines, including NCI-H1792, NCI-H1703, NCI-H441, SNU-761, NCI-H1975, NCI-H358, NCI-H1838, NCI-H1915, A549, SK-MES-1, NCI-H292, PC-9, NCI-H460, NCI-H23, NCI-H1581, and HLF, were used for the proliferation inhibition assay of the present invention compound. […] The cell detection equipment used was In Cell Analyzer 2200 (GE Healthcare).
(§5) With 60 μM as the initial concentration, ten points were obtained by serial five-fold dilution.
(§6) Each kind of cell in logarithmic growth phase was inoculated with 4000 cells/100 μl/well into a black transparent bottom 96-well plate and cultured overnight at 37° C. The next day, the plate was taken out, and 20 μL of the prepared sample dilutions was added to each well. The plate was then subjected to treatment at 37° C. for 72 hours. After the treatment period of 72 hours, the plate was taken out and 50 μL of neutral formaldehyde fixative (formaldehyde: PBS=1:9, 50 μl/well) was added to each well. The plate was then fixed at room temperature for 10-30 minutes. Subsequently, the wells were washed twice with 1× PBS (100 μl/well) and treated with 0.2% Triton™-X100 for 5-10 minutes to permeabilize the cells. […] The inhibitory rates of each compound at different concentration points were calculated by using the following formula, and IC50 values were obtained through curve fitting using GraphPad Prism 6.0 software.

[4] = test system: NCI-H1703; assay: Proliferation inhibition, non-small cell lung cancer cell line NCI-H1703; format: cell-based; details: Homo sapiens, NCI-H1703, 72 h
Description: as §4, §5, §6

[5] = test system: NCI-H1838; assay: Proliferation inhibition, non-small cell lung cancer cell line NCI-H1838; format: cell-based; details: Homo sapiens, NCI-H1838, 72 h
Description: as §4, §5, §6

[6] = test system: SNU-761; assay: Proliferation inhibition, non-small cell lung cancer cell line SNU-761; format: cell-based; details: Homo sapiens; SNU-761, 72 h
Description: as §4, §5, §6

[7] = test system: U118MG cells; assay: Proliferation inhibition of human glioblastoma cells U118MG (DAPI cell count, 72 h); format: cell-based; details: U-118-MG, 72 h treatment
Description: Human glioblastoma cell U118MG was purchased from NANJING COBIOER BIOSCIENCES CO., LTD. […] The cell detection equipment used was the In Cell Analyzer 2200 (GE Healthcare).
as §5
Medium for U118 MG is the MEM (low glucose) medium supplemented with 10% FBS, 1% penicillin/streptomycin, 1% sodium pyruvate, and 1% MEM NEAA. U118 MG cells were seeded at a density of 4000 cells/100 μL/well in a 96-well black clear-bottom plate and incubated at 37° C. overnight. The plate was then taken, and 20 μL of the prepared diluted samples was added to the wells. The cells were treated at 37° C. for 72 hours. After 72 hours, the plate was taken, and a neutral formaldehyde fixation solution (formaldehyde:PBS=1:9) was added at 50 μL/well. The cells were fixed at room temperature for 10-30 minutes. The wells were washed twice with 1× PBS (100 μL/well), and then permeabilized with 0.2% Triton™-X100 for 5-10 minutes (100 μL/well). […] The plate was scanned by using an In Cell Analyzer, and the number of cells in each well was analyzed. The inhibition rate of each compound at various concentration points was calculated by using the formula provided. The IC50 values were determined by curve fitting using GraphPad Prism 6.0 software.

[8] = test system: NCI-H441; assay: Proliferation inhibition, non-small cell lung cancer cell line NCI-H441; format: cell-based; details: Homo sapiens, NCI-H441, 72 h
Description: as §4, §5, §6

[9] = test system: NCI-H358; assay: Proliferation inhibition, non-small cell lung cancer cell line NCI-H358; format: cell-based; details: Homo sapiens, NCI-H358, 72 h
Description: as §4, §5, §6

SMILES | T/C ([1]; 16 days after administration) [%] | TGI ([1]; 16 days after administration) [%] | Tumor relative volume (x ± S) ([1]; 16 days after administration) | Tumor volume (x ± S) ([1]; 16 days after administration) | Body weight change ([1]; Day 20 of treatment) | Day 21 Tumor Volume [2] [mm^3] | Relative Average Tumor Volume [2] | T/C (relative tumor growth rate) [2] [%] | TGI (relative tumor inhibition rate) [2] [%] | IC50 [3] [nM] | IC50 [4] [nM] | IC50 [5] [nM] | IC50 [6] [nM] | IC50 [7] [nM] | IC50 [8] [nM] | IC50 [9] [nM]
CC(=O)c1c(C)c2cnc(Nc3ccc(N4CCNCC4)cn3)nc2n(C2CCCC2)c1=O [Palbociclib, reference compound] | 66 | 34 | 7.7 ± 1.0 | 1469 mm^3 and 1469 ± 146 mm^3 | slight decrease in body weight | 1417.98 ± 121.86 | 9.58 | 66.01 | 33.99 |  |  |  |  |  |  | 
CCN1CCN(Cc2ccc(Nc3ncc(F)c(-c4cc(F)c5nc(C)n(C(C)C)c5c4)n3)nc2)CC1 [Abemaciclib, reference compound] | 93 | 7 |  | 2071 mm^3 and 2071 ± 148 mm^3 |  | 1627.31 ± 100.66 |  |  |  | 23 | 93 | 90.2 | 54 | 86 ± 22.9 | 40 | 44
